Patent publication US20030225152A1, “3-(Arylamino)methylene-1, 3-dihydro-2h-indol-2-ones as kinase inhibitors” (priority 2001, published 2003)

Legend:
[1] = biological target: T1, cytoplasmic domain of the human VEGF receptor (VEGFR-2) (Homo sapiens, UniProt P35968); test: KDR Assay; type: biochemical; conditions: His-VEGFR-2; 3.6 μM ATP
T1 construct: The cytoplasmic domain of the human VEGF receptor (VEGFR-2) was expressed as a Histidine-tagged fusion protein; Histidine tag
Method: The cytoplasmic domain of the human VEGF receptor (VEGFR-2) was expressed as a Histidine-tagged fusion protein following infection of insect cells using an engineered baculovirus. His-VEGFR-2 was purified to homogeneity, as determined by SDS-PAGE, using nickel resin chromatography. Kinase assays were performed in 96 well microtiter plates that were coated overnight with 30 μg of poly-Glu-Tyr (4:1) in 10 mM Phosphate Buffered Saline (PBS), pH 7.2-7.4. The plates were incubated with 1% BSA and then washed four times with PBS prior to starting the reaction. Reactions were carried out in 120 μL reaction volumes containing 3.6 μM ATP in kinase buffer (50 mM Hepes buffer pH 7.4, 20 mM MgCl2, 0.1 mM MnCl2 and 0.2 mM Na3VO4). Test compounds were reconstituted in 100% DMSO and added to the reaction to give a final DMSO concentration of 5%. Reactions were initiated by the addition 0.5 ng of purified protein. Following a ten minute incubation at 25° C., the reactions were washed four times with PBS containing 0.05% Tween-20. 100 μl of a monoclonal anti-phosphotyrosine antibody-peroxidase conjugate was diluted 1:10000 in PBS-Tween-20 and added to the wells for 30 minutes. Following four washes with PBS-Tween-20, 100 μl of O-phenylenediamine Dihydrochloride in Phosphate-citrate buffer, containing urea hydrogen peroxide, was added to the wells for 7 minutes as a colorimetric substrate for the peroxidase. The reaction was terminated by the addition of 100 μl of 2.5N H2SO4 to each well and read using a microplate ELISA reader set at 492 nm. IC50 values for compound inhibition were calculated directly from graphs of optical density (arbitrary units) versus compound concentration following subtraction of blank values.

[2] = tested on: VEGF induced increases in intracellular calcium levels in HUVEC (human umbilical vein endothelial cells); test: VEGF Stimulated Ca++ Signal in vitro (FLIPR); type: cell-based; conditions: VEGF 5 ng/mL; for IC50: 0.01 to 10.0 μM
In short: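 HUVEC loaded with Fluo-4 (45 min, 37° C.), washed, then pre-incubated 30 min with compound (10 μM single dose or 0.01–10.0 μM; 0.1% DMSO) before 5 ng/mL VEGF. Fluorescence at 516 nm read by FLIPR; IC50 from % inhibition of max-min VEGF response.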

T1 sequence (P35968 786-1356): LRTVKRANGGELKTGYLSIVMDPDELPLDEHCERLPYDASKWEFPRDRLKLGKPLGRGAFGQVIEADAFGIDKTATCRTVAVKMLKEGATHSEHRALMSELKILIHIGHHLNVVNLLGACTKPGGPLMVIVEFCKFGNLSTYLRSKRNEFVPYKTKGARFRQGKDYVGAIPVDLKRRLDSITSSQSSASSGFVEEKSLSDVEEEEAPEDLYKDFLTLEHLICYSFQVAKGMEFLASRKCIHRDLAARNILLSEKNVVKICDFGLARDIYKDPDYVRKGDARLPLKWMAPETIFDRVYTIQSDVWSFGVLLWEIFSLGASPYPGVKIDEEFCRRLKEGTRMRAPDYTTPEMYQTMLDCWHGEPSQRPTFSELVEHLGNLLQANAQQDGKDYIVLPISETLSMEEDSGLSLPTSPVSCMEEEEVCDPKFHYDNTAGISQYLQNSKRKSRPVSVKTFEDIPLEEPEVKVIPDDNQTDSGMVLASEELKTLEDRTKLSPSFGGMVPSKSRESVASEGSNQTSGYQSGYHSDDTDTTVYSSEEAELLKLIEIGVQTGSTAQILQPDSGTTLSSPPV

IC50 [1] [nM]	Compound	inhibition at 10 µM ([2]; Homo sapiens, 10 μM) [%]	IC50 ([2]; Homo sapiens) [nM]	VEGF Stimulated Ca^++ signal assay % inhibition @ 10 μM ([2]; 10 μM) [%]	IC50 [2] [nM]
470	CC(=O)Nc1ccc(NC=C2C(=O)Nc3ccccc32)cc1 [Example 34, 3-[(4-Acetanilidylamino)-methylene]-1,3-dihydro-indol-2-one]	94.5	2250		
190	O=C(O)Cc1cccc(NC=C2C(=O)Nc3ccccc32)c1 [Example 35, (3-[(2-Oxo-1,2-dihydro-indol-3-ylidenemethyl)-amino]-phenyl-)acetic acid]	95.1	3100		
500	NS(=O)(=O)c1ccc(NC=C2C(=O)Nc3ccccc32)cc1 [Example 38, 2-Oxo-1,2-dihydro-indol-3-ylidenemethyl-sulfanilamide]			92.08	1450
230	O=C1Nc2ccccc2C1=CNc1ccc2ncsc2c1 [Example 43, 3-[(6-Benzthioazolylamino)-methylene]-1,3-dihydro-indol-2-one]	84	1740		
660	O=C1Nc2ccccc2C1=CNc1ccc(C(=O)O)c(O)c1 [Example 44, 2-Hydroxy-4-[(2-oxo-1,2-dihydro-indol-3-ylidenemethyl)-amino]-benzoic acid]	96	2020		
740	Cc1ccc(NC=C2C(=O)Nc3ccccc32)cc1O [Example 48, 3-[(3-Hydroxy-4-methyl-phenylamino)-methylene]-1,3-dihydro-indol-2-one]	95.4			
510	COc1ccc(NC=C2C(=O)Nc3ccccc32)cc1O [Example 49, 3-[(3-Hydroxy-4-methoxy-phenylamino)-methylene]-1,3-dihydro-indol-2-one]	97.1			
550	O=C1Nc2ccccc2C1=CNc1ccc(OC(F)F)cc1 [Example 50, 3-{[4-(1,1-Difluoro-methoxy)-phenylamino]-methylene}-1,3-dihydro-indol-2-one]	93.5	1650		
580	CC(C)c1ccc(NC=C2C(=O)Nc3ccccc32)cc1 [Example 52, 3-[(4-Isopropyl-phenylamino)-methylene]-1,3-dihydro-indol-2-one]	69	2280		
1880	COc1cccc(NC=C2C(=O)Nc3ccc(Cl)cc32)c1 [Example 57, 5-Chloro-3-[(3-methoxy-phenylamino)-methylene]-1,3-dihydro-indol-2-one]	60	5850		
360	Cc1cccc2c1C(=CNc1ccccc1)C(=O)N2 [Example 58, 4-Methyl-3-phenylaminomethylene-1,3-dihydro-indol-2-one]	86.6	≤ 1000		810
180	COc1ccc(NC=C2C(=O)Nc3cccc(C)c32)cc1 [Example 59, 3-[(4-Methoxy-phenylamino)-methylene]-4-methyl-1,3-dihydro-indol-2-one]	86	1650		
280	Cc1cccc2c1C(=CNc1cccc(O)c1)C(=O)N2 [Example 60, 3-[(3-Hydroxy-phenylarmino)-methylene]-4-methyl-1,3-dihydro-indol-2-one]	94	1330		
530	COc1ccc(NC=C2C(=O)Nc3ccc(Cl)cc32)cc1O [Example 65, 3-[(3-Hydroxy-4-methoxyphenylamino)-methylene]-5-chloro-1,3-dihydro-indol-2-one]	95.5	1100		
430	CC(O)c1ccc(NC=C2C(=O)Nc3ccc(Cl)cc32)cc1 (stereo not drawn) [Example 72, 5-Chloro-3-{[4-(1-hydroxy-ethyl)-phenylamino]-methylene}-1,3-dihydro-indol-2-one]	81.5	1560		
260	COc1ccc(NC=C2C(=O)Nc3ccc(Cl)cc32)cc1 [Example 73, 3-[(4-Methoxyphenylamino)-methylene]-5-chloro-1,3-dihydro-indol-2-one]	56.5	3650		
380	CCOc1ccc(NC=C2C(=O)Nc3ccccc32)cc1 [Example 82, 3-[(4-Ethoxyphenylamino)-methylene]-1,3-dihydro-indol-2-one]		2500		
460	O=C1Nc2ccccc2C1=CNc1ccc(CCO)cc1 [Example 87, 3-{[4-(2-Hydroxyethyl)phenylamino]-methylene}-1,3-dihydro-indol-2-one]	79.5	2250		
410	O=C1Nc2ccccc2C1=CNc1ccc(CO)cc1 [Example 88, 3-[(4-Hydroxymethyl-phenylamino)-methylene]-1,3-dihydro-indol-2-one]	97.5	≤ 1000		1000
220	Cc1cccc2c1C(=CNc1ccc3cn[nH]c3c1)C(=O)N2 [Example 90, 3-[(1H-Indazol-6-ylamino)-methylene]-4-methyl-1,3-dihydro-indol-2-one]	97.8			
240	COc1ccc(NC=C2C(=O)Nc3cccc(C)c32)cc1F [Example 91, 3-[(3-Fluoro-4-methoxy-phenylamino)-methylene]-4-methyl-1,3-dihydro-indol-2-one]	93.5	3020		
150	Cc1cccc2c1C(=CNc1ccc3ncsc3c1)C(=O)N2 [Example 92, 3-(Benzothiazol-6-ylaminomethylene)-4-methyl-1,3-dihydro-indol-2-one]	69	1770		
630	COC(=O)c1ccc(NC=C2C(=O)Nc3cccc(C)c32)cc1OC [Example 93, 2-Methoxy-4-[(4-methyl-2-oxo-1,2-dihydro-indol-3-ylidenemethyl)-amino]-benzoic acid methyl ester]	51.5	6620		
640	COc1cccc(NC=C2C(=O)Nc3ccccc32)c1 [Example 94, 3-[(3-Methoxy-phenylamino)-methylene]-1,3-dihydro-indol-2-one]	92.5	3880		
200	Cc1cccc2c1C(=CNc1ccc(O)cc1)C(=O)N2 [Example 96, 3-[(4-Hydroxy-phenylamino)-methylene]-4-methyl-1,3-dihydro-indol-2-one]	97	1680		
200	Cc1cccc2c1C(=CNc1ccc3cc[nH]c3c1)C(=O)N2 [Example 97, 3-[(1H-Indol-6-ylamino)-methylene]-4-methyl-1,3-dihydro-indol-2-one]	96.5	1860		
210	Cc1cccc2c1C(=CNc1ccc(CO)cc1)C(=O)N2 [Example 99, 3-[(4-Hydroxymethyl-phenylamino)-methylene]-4-methyl-1,3-dihydro-indol-2-one]	97.8			
650	COc1ccc(NC=C2C(=O)Nc3ccc(Cl)cc32)cc1OC [Example 102, 5-Chloro-3-[(3,4-dimethoxyphenylamino)-methylene]-1,3-dihydro-indol-2-one]	82.5	5910		
480	O=C1Nc2ccc(Cl)cc2C1=CNc1ccc2cn[nH]c2c1 [Example 103]	96.6	1040		
